These results are taken from patent US7132287B2, “Method for neural stem cell differentiation using 5HT-1A agonists” (Psychiatric Genomics, Inc., priority 2001, dated 2006).

One assay concerns cerebellar stem cells. Kind of assay: Neuronal differentiation of cerebellar stem cells (TuJ1 positive cells). Format: cell-based, rat. Particulars: FIG. 2, lane 5, serotonin 5 μM; untreated control less than 20%. The source says:
Isolation and quantitation of cerebellar stem cells. Neural stem cells were isolated from rat embryos (obtained from Taconic) at the 19th day of gestation (E19). The rats were sacrificed by inhalation of excess carbon dioxide. The abdomen of the rat was cleaned with 70% ethanol and the uterus was removed quickly and aseptically on the bench top. The uterus was placed in ice cold PBS (GIBCO Cat. # 20012-027) in a 200-ml beaker.
The cerebellar tissue was dissected under a microscope according to the following procedure and collected in a 15-ml tube containing HBSS on ice. The dissection should be completed in 1–2 hours (optimally) and the pH of the HBSS should remain neutral. First, the neck of the embryos was severed towards the bottom and the heads were collected in cold PBS. Next, the skin and scalp was removed from neck and head of the embryo. The brain, including the cerebral cortex, midbrain, cerebellum and some of the spinal cord, was removed by dissection under a microscope and transfered into a clean dish with fresh, cold PBS. The cerebellar region was dissected and cleaned of extraneous tissue, including removal of the meninges, and transferred into cold HBSS in a clean 15 ml tube.
The tube containing the cerebellar tissue was centrifuged at 1,000 RPM for 2 min at 15 C., followed by slow, careful aspiration of the HBSS supernatant (care should be taken to avoid aspirating tissue). (It is best to limit the centrifugation steps as much as possible.) About 1 to 3 ml of DMEM/F12/N2 medium (see below) was immediately added to the remaining tissue; the volume of medium depends on the quantity of the dissected tissue. The tissue was gently triturated about 8 to 10 times using a P-1000 Pipetteman until the tissue was dissociated (as evidenced by cloudy solution), then the tube was incubated in the hood for 5 minutes at room temperature to permit settlement of small particles of undissociated tissue. The supernatant was then transferred into a fresh tube, taking care to avoid the smaller particles of tissue that remained at the bottom of the tube.
Plating and expansion of cerebellar stem cells. The triturated cell suspension of E19 rat cerebellum was seeded into pre-coated 10 cm dishes at 2×10^6 cells per dish. This is denoted as the P0 culture (passage 0). The cells were grown in 5 ml of DMEM/F12/N2 supplemented with 25 mg/L insulin and 10 ng/ml bFGF at 37 C, 5% CO2 and 90% humidity.
Cells were fed daily with 10 ng/ml bFGF. The medium was changed one day after the cells were seeded, and thereafter every other day. On about day 4 of the culture, or when cells reached 70% confluence, the culture was passaged (see “Passage of cerebellar stem cells” below) and seeded into 10 cm dishes at an initial density of 2×10^6 cells per dish. This is denoted as the P1 culture (passage 1). The passaged cells at P1 were grown in DMEM/F12/N2 medium supplemented with 25 mg/L insulin and 10 ng/ml bFGF. The medium was changed every other day.
After two days of culture, some cells were passaged into a P2 culture, and some were seeded in 12-well tissue culture plates for experimental use. One ml of DMEM/F12/N2 medium was used per well of a 12-well plate at 2×10^4 cells per well. Experimental treatments were initiated the day after passage.
(§1) Drug treatments. Stem cells obtained as described above were treated with drugs and subjected to differentiation protocols in the second passage. Cells were plated at a density of 1×10^4 cells per well of a 12-well petridish (Falcon).
Drug treatments were started on the next day. […] The WAY 100635 antagonist compound was used simultaneously with buspirone or serotonin in the blocking experiments.

A further assay concerns adult rat hippocampus. The settings on record: Mahlberg et al., preliminary data; cited from earlier work.
In assay [1] the test system is cortical neural stem cells. The assay is described as follows: Neuronal differentiation of cortical neural stem cells (β tubulin III / TuJ-1 immunofluorescence). Type of assay: cell-based, rat. Particulars: 6 days.
Text: Isolation of cortical and striatal stem cells. Timed pregnant Sprague Dawley rats obtained from Taconic at embryonic age E14-E15 were sacrificed as described above and the uterus removed and placed in ice cold PBS in a 10 cm petridish. After rinsing the uterus in PBS, embryos were removed from the uterus, rinsed in PBS and collected in cold HBSS (buffered with HEPES and sodium bicarbonate) in a 10 cm petridish and placed on ice.
The cortex and striatum was dissected under a microscope and collected in a 15 ml tube of HBSS, on ice. Removal of meninges is not possible at this age, and no attempt was made to do so. If the dissected tissue was in large enough chunks and settle to the bottom of the tube, no centrifugation was performed. Alternatively, the tube was centrifuged at 1000 rpm for 5 minutes to pellet the tissue. Following centrifugation, the 15 ml tube containing the tissue was sprayed with 70% ethanol and taken into the sterile hood.
The HBSS was aspirated and replaced with 10 ml of DMEM/F12. The tissue was collected at the bottom of the tube by gravity or centrifugation, medium was aspirated, and 1 ml of DMEM/F12 was to the tissue. Cells were dissociated by trituration as described above, followed by addition of 5 ml of DMEM/F12 and a second round of trituration. […] The tubes were placed standing 5–10 minutes in the hood to allow larger particles and meninges to settle. While the meninges were settling, a cell count was made. 10 μl of the cell suspension is diluted with trypan blue and counted in a hemocytometer. Cells were counted in the four outer chambers with the larger squares, and cell count calculated assuming that the volume enclosed in each of the chambers was […].
Plating, expansion and passaging of cortical and striatal stem cells A generous amount of the triturated cell suspension was left in the original 15 ml tube to avoid fibroblast contamination in cultures. About 4–5 ml of the 6 ml of cells suspension was used for plating. Cells were plated at a concentration of approximately 1×10^6 per 10 cm dish. This culture is designated P0 (passage 0).
Following plating cells were expanded for about 3–4 days. The cultures were never permitted to reach more than 70% confluency. Cultures were then passaged as follows: 5 ml of HBSS was added to each 10 cm dish and the cells incubated at 37° C. for 15–45 minutes, or until sufficient numbers of the stem cells were rounded up. It is not expected that all cells in the culture will round up as there are several cell types in the culture at P0. The pH of the HBSS should be neutral at all times during this incubation. Cells were then removed from the dish by pipetting with a 5 ml pipette, or by scraping with a policeman, collected in a 15 or 50 ml conical tube, and centrifuged at 1000 g for 5 minutes. Cells were gently re-suspended in medium, counted, and plated at a density of about 1×10^6 per 10 cm dish.
as §1
Drug treatments were started on the next day. […] The WAY 100635 antagonist compound was used simultaneously with buspirone or serotonin in the blocking experiments. Positive and negative control cultures were those treated with BDNF and FGF alone, respectively.
Cells were treated with the designated concentrations of drugs or combinations thereof, daily, and were fed every alternate day with fresh medium. Experiments were maintained for about 6–10 days in most cases.

Assay [2] concerns the target T1, 5-HT1A receptors over dopamine D2 receptors (Homo sapiens, UniProt P08908).
T1 sequence (P08908 1-422): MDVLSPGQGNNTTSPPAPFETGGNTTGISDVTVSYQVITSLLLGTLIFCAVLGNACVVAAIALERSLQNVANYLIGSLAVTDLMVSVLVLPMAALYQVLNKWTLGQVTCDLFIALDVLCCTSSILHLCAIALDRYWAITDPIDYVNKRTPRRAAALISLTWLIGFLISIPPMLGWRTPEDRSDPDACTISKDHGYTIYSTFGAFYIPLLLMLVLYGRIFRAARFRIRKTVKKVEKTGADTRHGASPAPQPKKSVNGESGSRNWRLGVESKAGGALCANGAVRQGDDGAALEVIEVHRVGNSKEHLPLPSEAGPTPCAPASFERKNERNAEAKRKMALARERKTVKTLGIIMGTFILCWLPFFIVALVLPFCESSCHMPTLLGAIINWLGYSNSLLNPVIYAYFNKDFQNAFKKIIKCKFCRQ
Particulars: compared to buspirone; cited from earlier work.

For assay [3], the target named is T2, 5HT1A receptor (Homo sapiens, UniProt P08908).
T2 sequence (P08908 1-422): T1 sequence (P08908 1-422)
The settings on record: cited from earlier work.

Assay [4] deals with cerebellar neural stem cells.
Protocol: Cells were treated with the drugs as shown in the presence or absence of the 5HT 1A antagonist WAY 100635 (10 nM), or vasoactive intestinal peptide
Drug treatments were started on the next day. Optimal concentrations were as follows: bFGF: 10 ng/ml; BDNF (R&D Systems, Minneapolis, Minn.): 20 ng/ml; buspirone (Sigma): 100–1000 nM; or Serotonin (Sigma): 5–10 μM; buspirone or serotonin and the 5HT1A antagonist WAY100635 (Sigma): 10 nM. The WAY 100635 antagonist compound was used simultaneously with buspirone or serotonin in the blocking experiments. Positive and negative control cultures were those treated with BDNF and FGF alone, respectively.
Untreated cells were used as a negative control.
In assay [5] the target is T2, 5HT1A receptor. Particulars: cited from earlier work. The source holds these as a separate data set.

Where “and” joins values, the source holds several entries; their conditions need not be identical. Equal values may be shown once.

`NCCc1c[nH]c2ccc(O)cc12` [serotonin, 5-hydroxytryptamine] returned a differentiation of neurons in the assay on cerebellar stem cells of 60%.

Turning to `CNCCC(Oc1ccc(C(F)(F)F)cc1)c1ccccc1` (centres unmarked) [fluoxetine], in the assay on adult rat hippocampus, the “neurogenesis in adult rat hippocampus” value was “increases neurogenesis”. In the case of “bFGF: recombinant human basic fibroblast growth factor (R&D Systems), mitogenic growth factor; negative control”, in assay [1] (10 ng/ml bFGF), the “Total No. of Cells” value is 7330 and 10210. In addition, the “No. Fluorescent Cells” value in assay [1] (10 ng/ml bFGF, TuJ-1 staining) was 33 and 65.

Regarding `CC1(C)CC(=O)N(CCCCN2CCN(c3ncccn3)CC2)C(=O)C1` [gepirone], in assay [2], the “selectivity for 5-HT1A receptors over dopamine D2 receptors” value is “much greater selectivity”.

In the case of `COc1ccc2[nH]cc(CCN(C)C)c2c1` [5-methoxy-N,N-dimethyltryptamine], at 5HT1A receptor [3], the “affinity for the 5HT1A receptor” value was “high affinity”. On to `COc1ccccc1N1CCN(CCN(C(=O)C2CCCCC2)c2ccccn2)CC1` [WAY100635, N-[2-[4-(2-Methoxyphenyl)-1-piperazinyl]ethyl]-N-2-pyridinylcyclohexanecarboxamide], for which the “effect of antagonist on buspirone-induced neuronal differentiation” value in assay [4] (WAY100635 10 nM added simultaneously with buspirone 500 nM, FIG. 2 lane 4) is “inhibited neuronal differentiation”. In assay [4] (WAY100635 10 nM added simultaneously with serotonin 5 μM, FIG. 2 lane 6), the “effect of antagonist on serotonin-induced neuronal differentiation” value was “inhibited neuronal differentiation”. In addition, the “effect of antagonist on vasoactive intestinal peptide-induced neuronal differentiation” value in assay [4] (WAY100635 10 nM added to VIP-treated cells, FIG. 2 lane 8) was “did not prevent or inhibit neuronal differentiation”. As for `CCCN(CCC)[C@@H]1CCc2ccc3[nH]c(C#N)cc3c2C1` [U-92016A], at 5HT1A receptor [5], the “intrinsic activity as 5-HT1A receptor agonist” value is reported as “exceptionally high degree of intrinsic activity”.

B1: BDNF: brain-derived neurotrophic factor (R&D Systems), a known neuronal differentiation factor; positive control (protein, UniProt P23560 19-247, looked up)
Neurotrophic factor BDNF …: APMKEANIRGQGGLAYPGVRTHGTLESVNGPKAGSRGLTSLADTFEHVIEELLDEDQKVRPNEENNKDADLYTSRVMLSSQVPLEPPLLFLLEEYKNYLDAANMSMRVRRHSDPARRGELSVCDSISEWVTAADKKTAVDMSGGTVTVLEKVPVSKGQLKQYFYETKCNPMGYTKEGCRGIDKRHWNSQCRTTQSYVRALTMDSKKRIGWRFIRIDTSCVCTLTIKRGR
For B1, the “Total No. of Cells” value in assay [1] (20 ng/ml BDNF) was 624 and 1006.
